Some test systems named below: NCI-H226 lung; DU-145 prostate; SK-OV-3 ovarian; HOP-92 NSCLC; K-562 leukemia; M14 melanoma; BT-549 breast; CAKI-1 renal; HCC-2998 colon; SF-295 CNS; SK-MEL-2 melanoma; SW-620 colon; T-47D breast; ACHN renal; SN12C renal; EKVX NSCLC; KM12 colon; SNB-75 CNS; NCI-H23 lung; DLD-1 colon.
Holding throughout (experiment): inhibition of tumour cell growth, NCI panel, 48 h

Here are results for seven compounds from PubChem BioAssay (NCI).

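Results reflect a 48-hour exposure of cells in 96-well plates to compound at five concentrations. The concentration for full growth arrest is given as TGI.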

In the case of `c1ccc2c(-c3csc(-c4c[nH]c5ccccc45)n3)c[nH]c2c1`, the TGI is greater than 100 µM in the experiment with NCI-H226 lung; greater than 100 µM with DU-145 prostate; greater than 100 µM in the experiment with SK-OV-3 ovarian; greater than 100 µM in the experiment with HOP-92 NSCLC; 15.1 µM in the experiment with K-562 leukemia; greater than 100 µM in the experiment on M14 melanoma. In addition, the TGI in the experiment on BT-549 breast is greater than 100 µM; with CAKI-1 renal, greater than 100 µM; in the experiment with HCC-2998 colon it was greater than 100 µM; in the experiment with SF-295 CNS, greater than 89.1 µM; in the experiment on SK-MEL-2 melanoma, greater than 100 µM; in the experiment with SW-620 colon it was greater than 100 µM. Further, the TGI in the experiment with T-47D breast is greater than 100 µM; in the experiment on ACHN renal it was greater than 100 µM; in the experiment with SN12C renal, greater than 100 µM; with EKVX NSCLC, greater than 100 µM; in the experiment on KM12 colon it was greater than 100 µM; in the experiment on SNB-75 CNS, greater than 79.1 µM. In addition, in the experiment on NCI-H23 lung, the TGI is greater than 100 µM.
In the case of `c1cncc(CSc2ncnc3nc[nH]c23)c1`, the TGI in the experiment on NCI-H226 lung, in the experiment on DU-145 prostate, with SK-OV-3 ovarian, with HOP-92 NSCLC, in the experiment on K-562 leukemia and in the experiment on M14 melanoma was greater than 100 µM each time. Besides, the TGI in the experiment with BT-549 breast, with CAKI-1 renal, in the experiment with HCC-2998 colon, in the experiment with SF-295 CNS, in the experiment with SK-MEL-2 melanoma and in the experiment on SW-620 colon was greater than 100 µM each time. The TGI in the experiment on T-47D breast, in the experiment with ACHN renal, in the experiment on SN12C renal, in the experiment with EKVX NSCLC, in the experiment with KM12 colon and in the experiment on SNB-75 CNS was greater than 100 µM throughout. The compound also registered a TGI in the experiment with NCI-H23 lung greater than 100 µM.
`CC(=O)O[C@@H]1[C@H]2[C@@H](OC(=O)c3ccccc3)[C@@H](C)C[C@]2(O)[C@H](OC(C)=O)[C@@]2(C)[C@@H]3C[C@@](C)(OC(C)=O)C[C@@H](OC(C)=O)[C@@]3(OC(C)=O)C[C@@]12C`: the TGI in the experiment on NCI-H226 lung, in the experiment with DU-145 prostate, in the experiment on SK-OV-3 ovarian, in the experiment on HOP-92 NSCLC, with K-562 leukemia and in the experiment with M14 melanoma was greater than 10 µM throughout. Further, the TGI in the experiment on BT-549 breast, with CAKI-1 renal, in the experiment with HCC-2998 colon, in the experiment on SF-295 CNS, with SK-MEL-2 melanoma and with SW-620 colon was greater than 10 µM in each case. Also, the TGI with T-47D breast, in the experiment on ACHN renal, with SN12C renal, with EKVX NSCLC, in the experiment with KM12 colon and with SNB-75 CNS was greater than 10 µM throughout. For the same compound, the TGI with NCI-H23 lung is greater than 10 µM.
With `O=c1ccn(/C=C/C(O)C(O)CO)c(=O)[nH]1` (centres undefined), the TGI in the experiment with NCI-H226 lung, in the experiment on SK-OV-3 ovarian, with K-562 leukemia, in the experiment on DLD-1 colon, in the experiment with CAKI-1 renal and with HCC-2998 colon was greater than 100 µM throughout. Further, the TGI with SF-295 CNS, in the experiment on SK-MEL-2 melanoma, in the experiment with SW-620 colon, in the experiment on ACHN renal, with SN12C renal and in the experiment with EKVX NSCLC was greater than 100 µM throughout. For the same compound, the TGI was 40.9 µM in the experiment with KM12 colon, greater than 100 µM in the experiment with SNB-75 CNS and greater than 100 µM in the experiment with NCI-H23 lung.
Turning to `CCCC(=O)OCOC(=O)N(C)N=Nc1ccc(C(=O)OCC)cc1`, the TGI with NCI-H226 lung is greater than 100 µM; in the experiment with DU-145 prostate, 64.1 µM; with SK-OV-3 ovarian, greater than 100 µM; in the experiment on HOP-92 NSCLC it was 63.7 µM; in the experiment with K-562 leukemia, greater than 100 µM; in the experiment on M14 melanoma, greater than 100 µM. For the same compound, the TGI in the experiment on BT-549 breast is 76.9 µM; with CAKI-1 renal, greater than 100 µM; in the experiment on HCC-2998 colon, 45.9 µM; in the experiment on SF-295 CNS, 53.8 µM; in the experiment on SK-MEL-2 melanoma it was 36.3 µM; in the experiment on SW-620 colon it was 66.3 µM. The TGI with T-47D breast is greater than 100 µM; in the experiment with ACHN renal it was 56.7 µM; in the experiment on SN12C renal, 76.7 µM; in the experiment on EKVX NSCLC, greater than 100 µM; in the experiment on KM12 colon, greater than 100 µM; in the experiment on SNB-75 CNS it was greater than 100 µM. For the same compound, the TGI in the experiment with NCI-H23 lung was found to be 66.4 µM.
For the compound `O=C1CSC(c2ccccc2O)N1c1ccc(Oc2ccc(Cl)cc2)c(Cl)c1` (centres undefined), the TGI is greater than 100 µM in the experiment with NCI-H226 lung; 59.8 µM in the experiment with DU-145 prostate; 47.9 µM in the experiment on SK-OV-3 ovarian; 39.1 µM in the experiment with HOP-92 NSCLC; greater than 100 µM with K-562 leukemia; 76.9 µM with M14 melanoma. Besides, the TGI is 34.9 µM in the experiment with BT-549 breast; 74 µM in the experiment on CAKI-1 renal; 40.4 µM in the experiment on HCC-2998 colon; 34.5 µM in the experiment on SF-295 CNS; 65.7 µM in the experiment with SK-MEL-2 melanoma; greater than 100 µM with SW-620 colon. In addition, the TGI in the experiment on T-47D breast turned out to be 46.8 µM; with ACHN renal, 94 µM; with SN12C renal, 39.5 µM; in the experiment on EKVX NSCLC, 45.9 µM; in the experiment with KM12 colon, 35.7 µM; in the experiment on SNB-75 CNS, 47.3 µM. Further, in the experiment on NCI-H23 lung, the TGI amounted to 46.6 µM.
As to `CSc1ccc2c(cc1=O)C(NC(=O)c1ccc(C#N)cc1)CCc1cc(O)c(O)c(O)c1-2` (centres undefined), the TGI is 59.1 µM in the experiment on NCI-H226 lung; 63.7 µM in the experiment on SK-OV-3 ovarian; 25.1 µM in the experiment on K-562 leukemia; 89.6 µM in the experiment on M14 melanoma; 70.2 µM with DLD-1 colon; 81.6 µM in the experiment with HCC-2998 colon. The TGI in the experiment with SF-295 CNS was 74.7 µM; with SW-620 colon it was 37.7 µM; in the experiment with ACHN renal it was greater than 100 µM; in the experiment with SN12C renal it was 40.3 µM; in the experiment on EKVX NSCLC, greater than 100 µM; in the experiment on KM12 colon, greater than 100 µM. Besides, the TGI worked out at 14.6 µM in the experiment on SNB-75 CNS and 71.3 µM in the experiment with NCI-H23 lung.
